Measurements reported in patent US4810699A, “Substituted 1,3,4,9-tetrahydropyrano[3,4,-b]indole-1-acetic acids, pharmaceutical compositions containing them, and methods for treating inflammatory conditions and for analgesic purposes using them” (American Home Products Corporation, priority 1987, dated 1989).

Assays:
Adjuvant Edema = assay: Preventative Adjuvant Edema; format: in vivo, Male Sprague Dawley rats; conditions: rat; for ED50: po, days 0, 1 and 2; for Preventative Adjuvant Edema, percent inhibition: p.o.
Procedure: This test is a primary screen for anti-inflammatory drugs.
Male Sprague Dawley rats (180-200 g) are used. The animals have free access to water but food is withdrawn 18 hours before testing.
Drug Preparations and Administration:
Freund's complete adjuvant is prepared by suspending 5 mg of killed and dried Mycobacterium butyricum (Difco) in 1 mL mineral oil. The test compound are dissolved, or suspended in 0.5% Tween 80 in distilled water according to their solubility. For primary screening all drugs are administered by gastric lavage at the arbitrary dosage of 25 mg/kg, p.o. in a volume of 0.5 mL/100 g body weight to groups of 10 animals.
The method is essentially that described by Wax et al, J. Pharmacol. Exp. Ther., 192, 166-171 (1975). Groups of rats are injected intradermally in the left hind paw with 0.1 mL of Freund's complete adjuvant. The test compound or vehicle is administered immediately before the adjuvant, 24 hours and 48 hours after the adjuvant (days 0, 1 and 2). The injected hind paw volume is measured before the injection of adjuvant and 24 hrs. after the last drug administration (day 3) by means of a plethysmometer (Buxco Electronics Inc.). The difference between the hind paw volume on day 0 and day 3 represents the edema volume. Etodolac (25 mg/kg, p.o.) is included as a positive control.
The mean edema volume (expressed as mL±SEM) is calculated for each group and the percentage protection conferred by the drug is calculated: [formula] where c is the mean edema volume for the vehicle-treated (0.5% Tween 80 in distilled water) controls and t is the mean edema volume for the drug treated group.

[1] = test system: Phenylbenzoquinone-induced Writhing; assay: Drug Effects on Phenylbenzoquinone-induced Writhing in Mice; format: in vivo, Male Swiss albino mice; conditions: mouse, p.o., 60 min before PBQ i.p.; for Phenylquinone Writhing in Mice, percent inhibition: dose 10 mg/kg; for ED50: po, read-out: Phenylquinone Writhing in Mice ED50
Procedure: A further test used to determine the utility of the compounds of the present invention is designated: Drug Effects on Phenylbenzoquinone-induced Writhing in Mice
The objective of this test is to determine the ability of test drugs to inhibit the nociceptive (pain) response of mice injected with a chemical irritant. This test is a primary screen for both peripheral and centrally acting analgesic drugs.
Male Swiss albino mice (15-25 g). The animals are fasted for 18 hours prior to use but have free access to water.
Drug Preparation and Administration:
Drugs are dissolved or suspended according to their solubility in 0.5% Tween 80 in distilled water. They are administered by gastric gavage in a volume of 5 mL/kg. For primary screening all drugs are administered at the arbitrary dosage of 25 mg/kg, p.o. to a group of 10 mice.
A modification of the method of Siegmund et al, Proc. Soc. Exp. Biol. Med., 95, 729-731 (1957) is used. Groups of 5 mice are dosed with the test compound or vehicle control. Sixty minutes later the animals are injected i.p. with 0.3 mL/20 g body weight of a 0.02% solution of phenylbenzoquinone (PBQ; 2-phenyl-1,4-benzoquinone) and placed in individual observation boxes. The number of writhing or abdominal squirming movements made by each mouse during the following 15 min. period is counted. The experiment is repeated with another group of 5 mice and the mean number of writhes per mouse for a group of 10 mice is calculated.
Drug treated and vehicle-treated control groups are compared and the percentage protection conferred by the drug is calculated: [formula] where c=mean number of writhes in the control group
t=mean number of writhes in the test drug group

Row | Structure (SMILES) | Phenylquinone Writhing in Mice, percent inhibition [1] | Preventative Adjuvant Edema, percent inhibition (Adjuvant Edema; dose 25 mg/kg) | further results
1 | CCC1(CC(=O)O)OCCc2c1[nH]c1c(OCC(F)(F)F)ccc(C)c21 (stereo not drawn) [Example 1, 1-Ethyl-1,3,4,9-tetrahydro-5-methyl-8-(2,2,2-trifluoroethoxy)pyrano[3,4-b]indole-1-acetic Acid] | 34% | – | ED50 (Adjuvant Edema): 16.4 mg/kg
2 | CCC1(CC(=O)O)OCCc2c1[nH]c1c(OCC(F)(F)F)c(Cl)ccc21 (stereo not drawn) [Example 2, 7-Chloro-1-ethyl-1,3,4,9-tetrahydro-8-(2,2,2-trifluoroethoxy)pyrano[3,4-b]indole-1-acetic Acid] | – | – | Preventative Adjuvant Edema, percent inhibition (Adjuvant Edema; dose 3 mg/kg): 50%; ED50 [1]: 77 mg/kg
3 | CCC1(CC(=O)O)OCCc2c1[nH]c1c(OCC(F)(F)F)ccc(F)c21 (stereo not drawn) [Example 3, 1-ethyl-5-fluoro-1,3,4,9-tetrahydro-8-(2,2,2-trifluoroethoxy)-pyrano[3,4-b]indole-1-acetic acid] | 18% | 70% | –
4 | CCC1(CC(=O)O)OCCc2c1[nH]c1c(OCC(F)(F)F)c(F)ccc21 (stereo not drawn) [Example 4, 7-fluoro-1-ethyl-1,3,4,9-tetrahydro-8-(2,2,2-trifluoroethoxy)-pyrano[3,4-b]indole-1-acetic acid] | 0% | – | Preventative Adjuvant Edema, percent inhibition (Adjuvant Edema; dose 10 mg/kg): 83%
5 | CCC1(CC(=O)O)OCCc2c1[nH]c1c(OC(C)C(F)(F)F)c(Cl)ccc21 (stereo not drawn) [Example 5, 7-chloro-1-ethyl-1,3,4,9-tetrahydro-8-(1-methyl-2,2,2-trifluoroethoxy)-pyrano[3,4-b]indole-1-acetic acid] | 31% | 41% | –
6 | CCC1(CC(=O)O)OCCc2c1[nH]c1c(OCC(F)(F)F)cccc21 (stereo not drawn) [Example 6, 1-Ethyl-1,3,4,9-tetrahydro-8-(2,2,2-trifluoroethoxy)pyrano[3,4-b]indole-1-acetic Acid] | – | – | ED50 (Adjuvant Edema): 4.3 mg/kg; ED50 [1]: > 200 mg/kg
7 | C=CCOc1cccc2c3c([nH]c12)C(CC)(CC(=O)O)OCC3 (stereo not drawn) [Example 7, 1-ethyl-1,3,4,9-tetrahydro-8-[(2-propenyl)oxy]-pyrano[3,4-b]indole-1-aceticacid] | 18% | 41% | –
8 | C#CCOc1cccc2c3c([nH]c12)C(CC)(CC(=O)O)OCC3 (stereo not drawn) [Example 8, 1-Ethyl-1,3,4,9-tetrahydro-8-[(2-propynyl)oxy]-pyrano[3,4-b]indole-1-aceticAcid] | – | 34% | –
